Assay results from ChEMBL document CHEMBL1154205, “Click chemistry based rapid one-pot synthesis and evaluation for protease inhibition of new tetracyclic triazole fused benzodiazepine derivatives” (Bioorg Med Chem Lett, 2009).
The source made the active and inactive calls. The rule behind the calls is not given here.

Legend:
[1] = Inhibition of serine protease
[2] = Inhibition of cysteine protease
[3] = Inhibition of aspartic protease

With `Cc1cc(Br)cc2c1C(=O)N1CCC[C@H]1c1cnnn1-2` the IC50 [1] was 674 µM, the IC50 [2] was “Not Active” and the inhibition [3] was “inactive”.
In the case of `O=C1c2c(cccc2[N+](=O)[O-])-n2nncc2[C@@H]2CCCN12`, the IC50 [1] is reported as 108 µM, the IC50 [2] is reported as “Not Active” and the inhibition [3] is reported as “inactive”.
For `Cc1cccc2c1C(=O)N1C[C@H](OCc3ccccc3)C[C@H]1c1cnnn1-2`, the IC50 [1] was 536 µM, the IC50 [2] was “Not Active” and the inhibition [3] was “inactive”.
In the case of `O=C1c2cc(Br)ccc2-n2nncc2[C@@H]2CCCN12`, the IC50 [1] is reported as 290 µM, the IC50 [2] is reported as “Not Active” and the inhibition [3] is reported as “inactive”.
In the case of `O=C1c2cc(Br)ccc2-n2nncc2[C@@H]2C[C@@H](OCc3ccccc3)CN12`, the IC50 [1] is reported as 206 µM, the IC50 [2] is reported as “Not Active” and the inhibition [3] is reported as “inactive”.
For `O=C1c2cc(I)cc(I)c2-n2nncc2[C@@H]2C[C@@H](OCc3ccccc3)CN12`, the IC50 [1] was 196 µM, the IC50 [2] was “Not Active” and the inhibition [3] was “inactive”.
